The values that follow come from PMC10900488, “Synthesis and Evaluation of (Bis)benzyltetrahydroisoquinoline Alkaloids as Antiparasitic Agents” (JACS Au, 2024).

The IC50 is the concentration needed to halve the response being measured.

The test system of test [1] is L. mexicana promastigotes. In words: Light microscopy of cell morphology. The class given is cell-based, Leishmania (L.) mexicana. As to the method:
Preliminary investigations into the mechanism of action for compounds (S)-9a, (S)-9b and (S,R)-11 were carried out using L. mexicana promastigotes. Light microscopy-based techniques were employed to further explore compound activity in a different, related Leishmania species. […] A solvent-only control using 0.1% (v/v) DMSO led to no significant effects. Cell cultures were examined by light microscopy to identify any morphological changes resulting from compound treatment (Figure 2B). […] Cells treated with the BI and BBI compounds develop a changed morphology with a spherical cell body or shortened flagellum. This effect is observed in 25% of the population for compound (S)-9a, to a greater extent (66%) for (S)-9b, and 27% for compound (S,R)-11. An abnormal number and position of Ks and Ns were often observed, with Ks and Ns sometimes less well-defined by Hoechst 33342 staining. […]
If the radar plot falls completely within the pink area, the compounds is predicted to have good oral […]
Figure S1. Bioavailability radars for hit compounds as generated by the SwissADME Webtool.
General Experimental Considerations
MTT was obtained from Molecular Probes® (Invitrogen™). Foetal calf serum (FCS, 10500064), M199 medium (M199 containing Earle’s salts and L-glutamine, 31100019), were purchased from Gibco. Hemin (H9039) was obtained from Sigma Aldrich. The FilterMax F5 Multi-Mode Microplate Reader spectrofluorimeter (Molecular Devices) was used to obtain all absorbance readings.
Microscopy was performed with a widefield fluorescence microscope (Axio Observer A1, Zeiss) using a 63× NA 1.4 Plan-Apochromat oil immersion objective lens and a 120V metal halide fluorescence light source (Zeiss, HXP 120V) with a Hamamatsu ORCA-Flash4.0 camera. Standard fluorescence microscopy was performed with a Green (ThorLabs, MDF-GFP2) and/or Blue (Zeiss, 49) filter cube. […]

The next test deals with L. infantum amastigotes. In words: Antiamastigote assay (L. infantum), ex vivo intracellular model of mice macrophages, microscopy. In kind it is cell-based, Leishmania (L.) infantum. Particulars: Leishmania infantum, Peritoneal macrophage, 96 h, ± SD, intracellular, peritoneal macrophages, read-out: L. infantum IC50 amastigotes.

Each structure is given as a SMILES string.

Consider `COc1cc2c(cc1OC)[C@H](Cc1ccc(Br)cc1)N(C)CC2` [(S)-9a], for which, in test [1] (50 μM), the “Abnormal morphology (spherical cell body or shortened flagellum), share of population” value (“Abnormal morphology” for short) came out at 25%. In addition, the IC50 in the test with L. infantum amastigotes is 13.3 ± 0.9 µM.

Take `COc1cc2c(cc1OC)[C@H](Cc1ccc(OC)c(OCc3ccccc3)c1)N(C)CC2` [(S)-9b]: the “Abnormal morphology” value in test [1] (50 μM) turned out to be 66%. The IC50 in the test with L. infantum amastigotes was 26.7 ± 2 µM.

With `COc1cc2c(cc1OC)[C@@H](Cc1ccc(Oc3cc(C[C@H]4c5cc(OC)c(OC)cc5CCN4C)ccc3OC)cc1)N(C)CC2` [(S,R)-11, (−)-O,O′-dimethylgrisabine], the “Abnormal morphology” value in test [1] (5 μM) stood at 27%. Further, the IC50 with L. infantum amastigotes was above 150 µM.
